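Dose response: 5 concentrations. Exposure: 48 h. Format: 96-well plates. Endpoint: linear interpolation; highest concentration if not reached. TGI denotes the concentration required for complete inhibition of growth.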
How the values were obtained:
Assay in all cases: DTP human tumour cell line panel, 48 h
[1] = test system: NCI-H522 lung
[2] = test system: T-47D breast
[3] = test system: UACC-257 melanoma
[4] = test system: NCI-H460 lung
[5] = test system: SK-MEL-5 melanoma
[6] = test system: PC-3 prostate
[7] = test system: U251 CNS
[8] = test system: M14 melanoma
[9] = test system: SN12C renal
[10] = test system: ACHN renal
[11] = test system: OVCAR-5 ovarian
[12] = test system: MALME-3M melanoma
[13] = test system: HOP-62 NSCLC
[14] = test system: HT29 colon
[15] = test system: HCC-2998 colon
[16] = test system: RXF 393 renal
[17] = test system: A549 NSCLC
[18] = test system: UACC-62 melanoma
[19] = test system: RPMI-8226 leukemia
[20] = test system: OVCAR-8 ovarian
[21] = test system: 786-0 renal
[22] = test system: EKVX NSCLC
[23] = test system: HCT-15 colon
[24] = test system: NCI/ADR-RES ovarian
[25] = test system: HL-60(TB) leukemia
[26] = test system: NCI-H226 lung
[27] = test system: MDA-N
[28] = test system: TK-10 renal
[29] = test system: K-562 leukemia
[30] = test system: UO-31 renal
[31] = test system: MOLT-4 leukemia
[32] = test system: OVCAR-3 ovarian
[33] = test system: MDA-MB-435
[34] = test system: SF-268 CNS
[35] = test system: CAKI-1 renal
[36] = test system: SF-539 CNS
[37] = test system: HOP-92 NSCLC
[38] = test system: SR leukemia
[39] = test system: IGROV1 ovarian
[40] = test system: SNB-19 CNS
[41] = test system: SK-MEL-2 melanoma
[42] = test system: COLO 205 colon
[43] = test system: DU-145 prostate
[44] = test system: BT-549 breast
[45] = test system: HCT-116 colon
[46] = test system: SK-MEL-28 melanoma
[47] = test system: MCF7 breast
[48] = test system: OVCAR-4 ovarian
[49] = test system: KM12 colon
[50] = test system: NCI-H23 lung
[51] = test system: SF-295 CNS
[52] = test system: SW-620 colon
[53] = test system: LOX IMVI melanoma
[54] = test system: CCRF-CEM leukemia
[55] = test system: MDA-MB-231 breast
[56] = test system: SK-OV-3 ovarian
[57] = test system: SNB-75 CNS
[58] = test system: A498 renal
[59] = test system: HS 578T breast

O=c1c2cc(I)ccc2nc(-c2cccs2)n1-c1ccc(O)cc1
TGI [1]: 30.1 µM | TGI [2]: 10.7 µM | TGI [3]: 22.1 µM | TGI [4]: 52.6 µM | TGI [5]: 24.3 µM | TGI [6]: 22.5 µM | TGI [7]: 48.5 µM | TGI [8]: 29.3 µM | TGI [9]: 40.7 µM | TGI [10]: 22.5 µM | TGI [11]: 30.2 µM | TGI [12]: 20.6 µM | TGI [13]: 32.4 µM | TGI [14]: 27.1 µM | TGI [15]: 30.6 µM | TGI [16]: 30.8 µM | TGI [17]: 27.4 µM | TGI [18]: 26.9 µM | TGI [19]: 18.3 µM | TGI [20]: 29.4 µM | TGI [21]: 29.8 µM | TGI [22]: 33.4 µM | TGI [23]: 26.1 µM | TGI [24]: 56.2 µM | TGI [25]: 36.7 µM | TGI [26]: 35.9 µM | TGI [27]: 62.8 µM | TGI [28]: 23.3 µM | TGI [29]: > 100 µM | TGI [30]: 25.4 µM | TGI [31]: 78.9 µM | TGI [32]: 21.8 µM | TGI [33]: 30.8 µM | TGI [34]: 32.8 µM | TGI [35]: 32.9 µM | TGI [36]: 14.5 µM | TGI [37]: 26.9 µM | TGI [38]: > 100 µM | TGI [39]: 46.7 µM | TGI [40]: 38.8 µM | TGI [41]: 29.9 µM | TGI [42]: 36.1 µM | TGI [43]: 19.7 µM | TGI [44]: 27.9 µM | TGI [45]: 27.4 µM | TGI [46]: 34 µM | TGI [47]: 32.8 µM | TGI [48]: 49.1 µM | TGI [49]: 25.1 µM | TGI [50]: 36.7 µM | TGI [51]: 27.4 µM | TGI [52]: 69.6 µM | TGI [53]: 28.5 µM

CCSCCCN(CCCSCC)CCCSCC
TGI [1]: > 100 µM | TGI [2]: > 100 µM | TGI [3]: > 100 µM | TGI [4]: > 100 µM | TGI [5]: > 100 µM | TGI [6]: > 100 µM | TGI [7]: > 100 µM | TGI [8]: > 100 µM | TGI [9]: > 100 µM | TGI [11]: > 100 µM | TGI [13]: > 100 µM | TGI [54]: > 100 µM | TGI [14]: > 100 µM | TGI [15]: > 100 µM | TGI [17]: > 100 µM | TGI [18]: > 100 µM | TGI [20]: > 100 µM | TGI [21]: > 100 µM | TGI [23]: > 100 µM | TGI [24]: > 100 µM | TGI [25]: > 100 µM | TGI [27]: > 100 µM | TGI [29]: > 100 µM | TGI [30]: > 100 µM | TGI [31]: > 100 µM | TGI [32]: > 100 µM | TGI [55]: > 100 µM | TGI [33]: > 100 µM | TGI [34]: > 100 µM | TGI [36]: > 100 µM | TGI [37]: 80.4 µM | TGI [38]: > 100 µM | TGI [39]: > 100 µM | TGI [40]: > 100 µM | TGI [42]: > 100 µM | TGI [43]: > 100 µM | TGI [56]: > 100 µM | TGI [44]: > 100 µM | TGI [45]: > 100 µM | TGI [46]: > 100 µM | TGI [47]: > 100 µM | TGI [48]: > 100 µM | TGI [49]: > 100 µM | TGI [50]: > 100 µM | TGI [51]: > 100 µM | TGI [52]: > 100 µM | TGI [53]: > 100 µM | TGI [57]: > 100 µM

COc1ccc(NC(C)=O)cc1N1C(=O)/C(=C\c2cc(OC)c(OC)c(OC)c2)SC1c1ccccc1 (centres undefined)
TGI [1]: > 100 µM | TGI [2]: > 100 µM | TGI [3]: > 100 µM | TGI [4]: > 100 µM | TGI [5]: > 100 µM | TGI [6]: > 100 µM | TGI [7]: > 100 µM | TGI [8]: > 100 µM | TGI [9]: > 100 µM | TGI [10]: > 100 µM | TGI [11]: > 100 µM | TGI [12]: > 100 µM | TGI [13]: > 100 µM | TGI [54]: > 100 µM | TGI [14]: > 100 µM | TGI [15]: > 100 µM | TGI [16]: > 100 µM | TGI [17]: > 100 µM | TGI [18]: > 100 µM | TGI [19]: > 100 µM | TGI [20]: > 100 µM | TGI [21]: > 100 µM | TGI [22]: > 100 µM | TGI [23]: > 100 µM | TGI [24]: > 100 µM | TGI [25]: 41 µM | TGI [26]: > 100 µM | TGI [27]: 72.3 µM | TGI [28]: > 100 µM | TGI [29]: > 100 µM | TGI [30]: > 100 µM | TGI [31]: 65.6 µM | TGI [32]: > 100 µM | TGI [55]: > 100 µM | TGI [33]: > 100 µM | TGI [35]: 60.2 µM | TGI [36]: > 100 µM | TGI [37]: > 100 µM | TGI [38]: > 100 µM | TGI [39]: > 100 µM | TGI [40]: > 100 µM | TGI [41]: > 100 µM | TGI [42]: > 100 µM | TGI [43]: > 100 µM | TGI [56]: > 100 µM | TGI [44]: > 100 µM | TGI [45]: > 100 µM | TGI [46]: > 100 µM | TGI [47]: > 100 µM | TGI [58]: > 100 µM | TGI [48]: > 100 µM | TGI [49]: > 100 µM | TGI [50]: > 100 µM | TGI [51]: > 100 µM | TGI [52]: > 100 µM | TGI [53]: > 100 µM | TGI [57]: > 100 µM

CC[N+]1(C)CCC(O)(c2ccc(Cl)c(Cl)c2)C(C(=O)c2ccc(Cl)c(Cl)c2)C1 (centres undefined)
TGI [1]: 7.44 µM | TGI [2]: > 10 µM | TGI [3]: > 10 µM | TGI [4]: > 10 µM | TGI [5]: > 10 µM | TGI [6]: > 10 µM | TGI [7]: > 10 µM | TGI [8]: > 10 µM | TGI [9]: > 10 µM | TGI [10]: > 10 µM | TGI [11]: > 10 µM | TGI [12]: > 10 µM | TGI [13]: > 10 µM | TGI [54]: 5.98 µM | TGI [14]: > 10 µM | TGI [15]: > 10 µM | TGI [59]: > 10 µM | TGI [16]: > 10 µM | TGI [17]: > 10 µM | TGI [19]: > 10 µM | TGI [20]: > 10 µM | TGI [21]: > 10 µM | TGI [22]: > 10 µM | TGI [23]: > 10 µM | TGI [24]: > 10 µM | TGI [25]: > 10 µM | TGI [26]: > 10 µM | TGI [27]: > 10 µM | TGI [28]: > 10 µM | TGI [29]: > 10 µM | TGI [30]: > 10 µM | TGI [31]: > 10 µM | TGI [32]: > 10 µM | TGI [34]: > 10 µM | TGI [35]: > 10 µM | TGI [36]: > 10 µM | TGI [37]: > 10 µM | TGI [38]: > 10 µM | TGI [39]: > 10 µM | TGI [40]: > 10 µM | TGI [41]: > 10 µM | TGI [42]: > 10 µM | TGI [43]: > 10 µM | TGI [56]: > 10 µM | TGI [44]: > 10 µM | TGI [45]: > 10 µM | TGI [46]: > 10 µM | TGI [47]: > 10 µM | TGI [58]: > 10 µM | TGI [48]: > 10 µM | TGI [49]: > 10 µM | TGI [50]: > 10 µM | TGI [51]: > 10 µM | TGI [52]: > 10 µM | TGI [53]: > 10 µM | TGI [57]: > 10 µM

— PubChem BioAssay (NCI)
